The values below are quoted from earlier work in patent publication EP3811932A1, “DOSAGE FORM OF APALUTAMIDE” (Zentiva K.S., priority 2019, dated 2021).

The conditions of this data set: over a wide range of pH values.

For the molecule `CNC(=O)c1ccc(N2C(=S)N(c3cnc(C#N)c(C(F)(F)F)c3)C(=O)C23CCC3)cc1F` [Apalutamide, 4-[7-[6-cyano-5-(trifluoromethyl)pyridin-3-yl]-8-oxo-6-thioxo-5,7-diazaspiro[3.4]octan-5-yl]-2-fluoro-N-methylbenzamide], the “solubility in aqueous media” value is on record as “practically insoluble”.
